From ChEMBL document CHEMBL1201862, “PubChem BioAssay data set” (2004)
Activity calls are given as the source filed them.

Legend:
[1] = cytotoxicity toward NIH3T3 fibroblasts, dose response, counter-screen, cell-based, ATP luminescence, mouse fibroblasts (AID 2010); type: functional;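 also: cells exposed to compound for about 90 hours before reading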
[2] = inhibitors of intracellular T. cruzi replication, confirmation, NIH3T3 host cells, beta-gal luminescence (AID 2044); type: functional, cell-based;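 also: intracellular parasites grown in NIH/3T3 mouse fibroblasts as host cells; luminescent beta-galactosidase reporter signal from transgenic T. cruzi replicating inside host cells; inhibitors lower the luminescence signal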
[3] = molecular target: T1, Microphthalmia-associated transcription factor (Homo sapiens, UniProt O75030); test: TRPM1 promoter luciferase signal decrease, dose response, MITF inhibitor project, cell-based, SK-MEL-5, cherry-picked, set 3 (AID 493073); type: functional
T1 sequence (O75030 whole entry): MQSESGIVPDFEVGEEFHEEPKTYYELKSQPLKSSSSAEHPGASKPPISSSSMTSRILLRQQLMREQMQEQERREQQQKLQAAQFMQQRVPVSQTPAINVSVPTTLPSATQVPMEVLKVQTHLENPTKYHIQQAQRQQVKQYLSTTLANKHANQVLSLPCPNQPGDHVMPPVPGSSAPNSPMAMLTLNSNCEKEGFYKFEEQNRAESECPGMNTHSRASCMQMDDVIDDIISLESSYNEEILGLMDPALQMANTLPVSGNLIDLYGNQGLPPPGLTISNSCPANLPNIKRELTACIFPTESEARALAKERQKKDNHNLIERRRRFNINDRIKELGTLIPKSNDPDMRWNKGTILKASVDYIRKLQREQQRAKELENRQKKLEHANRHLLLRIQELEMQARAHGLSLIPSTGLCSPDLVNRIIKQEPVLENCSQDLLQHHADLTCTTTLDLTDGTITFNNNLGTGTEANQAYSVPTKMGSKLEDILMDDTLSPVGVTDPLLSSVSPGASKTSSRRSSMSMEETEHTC

[4] = molecular target: Steroidogenic factor 1 (Homo sapiens, UniProt Q13285); test: Counterscreen for inverse agonists of the liver receptor homolog-1 (LRH-1; NR5A2): Luminescence-based cell-based high throughput dose response assay to identify inverse agonists of the Steroidogenic Factor 1 Nuclear Receptor (SF1; NR5A1).; type: functional
[5] = molecular target: Nuclear receptor subfamily 5 group A member 2 (Homo sapiens, UniProt O00482); type: functional, cell-based;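 also: HEK293T cells transfected with LRH-1 and a StAR promoter luciferase reporter; potency for inhibitors that lower LRH-1 driven reporter light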
[6] = StAR promoter reporter inhibition counter-screen, dose response, counter-screen for LRH-1 inverse agonist project, cell-based, luminescence, luciferase reporter (AID 651969); type: functional
[7] = molecular target: T2, Probable nicotinate-nucleotide adenylyltransferase (Staphylococcus aureus (strain N315), UniProt P65502); type: functional, Staphylococcus aureus subsp. aureus N315; details: read-out: IC50_Mean;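 as to IC50 Mean: confirmatory dose-response retesting of NadD inhibitor hits first found in an ultra-high-throughput screen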
[8] = molecular target: T2, Probable nicotinate-nucleotide adenylyltransferase; type: functional, Staphylococcus aureus subsp. aureus N315
[9] = T. cruzi growth inhibition in host cells, dose response, cell-based, plate reader, dry powder, set 2 (AID 652275); type: functional
[10] = molecular target: Fructose-bisphosphate aldolase (Mycobacterium tuberculosis, UniProt P9WQA3); test: Fluorescence-based biochemical high throughput dose response assay for inhibitors of the fructose-bisphosphate aldolase (FBA) of M. tuberculosis.; type: functional
[11] = molecular target: T3, Streptokinase A (Streptococcus pyogenes serotype M1, UniProt P10520); test: S. pyogenes streptokinase expression inhibitors, potency, dose response, plasminogen activation absorbance, OD405 (AID 1914); type: functional, Streptococcus pyogenes M1 GAS;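 also: secreted streptokinase activity via plasminogen activation per viability signal from cell pellet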
T3 sequence (P10520 whole entry): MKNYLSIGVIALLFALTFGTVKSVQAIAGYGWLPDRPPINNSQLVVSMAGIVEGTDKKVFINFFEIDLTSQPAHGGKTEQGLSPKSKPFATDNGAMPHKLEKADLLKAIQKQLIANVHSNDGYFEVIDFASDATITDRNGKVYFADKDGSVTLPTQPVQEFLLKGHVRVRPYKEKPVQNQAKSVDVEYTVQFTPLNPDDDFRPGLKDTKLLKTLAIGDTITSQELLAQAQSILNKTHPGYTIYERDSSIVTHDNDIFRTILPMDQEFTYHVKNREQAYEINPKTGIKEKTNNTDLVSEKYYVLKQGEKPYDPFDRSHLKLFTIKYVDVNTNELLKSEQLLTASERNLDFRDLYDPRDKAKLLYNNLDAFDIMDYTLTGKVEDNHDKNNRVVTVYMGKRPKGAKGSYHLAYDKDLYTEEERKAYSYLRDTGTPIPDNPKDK

[12] = miR-122 activators in hepatoma reporter cells, dose response, cell-based, Huh7 psiCHECK-miR122, Renilla luciferase, cherry-picked (AID 651956); type: functional;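 also: huh7 hepatoma cells stably carrying a psiCHECK-2 miR-122 sensor plasmid; renilla luciferase signal reporting endogenous miR-122 activity after 48 h compound exposure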
[13] = tested on: Streptococcus; test: Group A Streptococcus viability loss, dose response, counter-screen for streptokinase expression inhibitor project, luminescence, BacTiterGlo (AID 1915); type: functional, organism-based;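 also: potency for reduction of bacterial viability or growth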
[14] = molecular target: T4, Ubiquitin-conjugating enzyme E2 N (Homo sapiens, UniProt P61088); type: functional;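 also: Dose-response confirmation in a TR-FRET assay detecting UBC13-driven polyubiquitin chain formation, inhibition measured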
T4 sequence (P61088 whole entry): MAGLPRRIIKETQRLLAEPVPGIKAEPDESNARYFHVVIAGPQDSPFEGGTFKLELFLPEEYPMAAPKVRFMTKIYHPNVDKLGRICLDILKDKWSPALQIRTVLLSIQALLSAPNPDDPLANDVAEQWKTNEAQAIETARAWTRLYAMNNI

[15] = tested on: Streptococcus sp. 'group A'; test: growth inhibition of control SK(-) GAS strain, dose response, counter-screen for streptokinase expression inhibitor project, luminescence, kanamycin, BacTiterGlo, confirmation (AID 1900); type: functional, organism-based
[16] = molecular target: FAD-linked sulfhydryl oxidase ALR (Homo sapiens, UniProt P55789); test: inhibitors of human ALR sulfhydryl oxidase, dose response, biochemical, H2O2 detection, luminescence, cherry-pick (AID 493248)
[17] = molecular target: T5, Beta-lactamase (Salmonella choleraesuis (strain SC-B67), UniProt Q5J463); test: Epi-absorbance-based counterscreen for selective VIM-2 inhibitors: dose response biochemical high throughput screening assay to identify inhibitors of TEM-1 serine-beta-lactamase.
[18] = molecular target: T6, Beta-lactamase (Pseudomonas aeruginosa, UniProt Q79MP6); test: IMP-1 metallo-beta-lactamase inhibitors, dose response, selectivity assay for VIM-2 inhibitor project, biochemical, epi-absorbance (AID 1920)
[19] = molecular target: T6, Beta-lactamase; test: […] counterscreen for selective VIM-2 inhibitors: dose response biochemical high throughput screening assay to identify inhibitors of IMP-1 metallo-beta-lactamase.
[20] = cells; type: functional, cell-based; details: HEK-CNG
[21] = molecular target: Galanin receptor type 3 (Homo sapiens, UniProt O60755); test: Fluorescence-based cell-based primary high throughput dose response assay to identify antagonists of the Galanin Receptor 3 (GalR3).; type: functional
[22] = molecular target: Beta Lactamase (Pseudomonas aeruginosa, UniProt Q932Y6); test: beta-lactamase reporter inhibitor potency, dose response, artefact control for NOD2-RIPK2 interaction inhibitor project, BLA reporter cells, FRET fluorescence (AID 651552); type: functional, cell-based
[23] = molecular target: T7, DNA repair protein RAD52 homolog (Homo sapiens, UniProt P43351); type: functional, biochemical
T7 sequence (P43351 whole entry): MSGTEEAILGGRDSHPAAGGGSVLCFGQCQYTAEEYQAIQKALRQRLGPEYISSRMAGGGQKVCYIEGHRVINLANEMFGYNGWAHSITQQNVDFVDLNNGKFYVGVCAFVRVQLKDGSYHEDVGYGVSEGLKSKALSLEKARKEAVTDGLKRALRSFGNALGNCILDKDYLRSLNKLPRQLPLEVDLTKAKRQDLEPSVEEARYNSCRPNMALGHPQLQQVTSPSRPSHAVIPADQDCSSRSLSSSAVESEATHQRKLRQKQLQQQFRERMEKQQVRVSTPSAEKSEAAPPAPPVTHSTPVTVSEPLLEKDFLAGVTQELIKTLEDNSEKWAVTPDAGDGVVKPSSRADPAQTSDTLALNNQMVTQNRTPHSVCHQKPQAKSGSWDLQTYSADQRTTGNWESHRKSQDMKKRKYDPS

[24] = non-specific cell cytotoxicity, dose response, cytotoxicity control for PAX8 inhibitor project, plate reader, dry powder samples (AID 743021); type: functional, cell-based
[25] = Fluorescence-based cell-based high throughput dose response assay for inhibitors of the interaction of nucleotide-binding oligomerization domain containing 2 (NOD2) and the receptor-interacting serine-threonine kinase 2 (RIPK2).; type: functional; details: Homo sapiens
[26] = molecular target: Paired box protein Pax-8 (Homo sapiens, UniProt Q06710); test: inhibitors of PAX8-driven TPO luciferase reporter, dose response, RMG-I cells, cherry-pick (AID 687027); type: functional, cell-based;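 also: luciferase reporter driven by Pax8 target thyroperoxidase promoter measured by SteadyGlo luminescence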
[27] = molecular target: Large T antigen (Simian virus 40, UniProt P03070); type: functional, Betapolyomavirus macacae;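 also: Confirmatory-stage PubChem screen for compounds that inhibit SV40 T antigen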
[28] = HepG2 cell cytotoxicity, dose response, cytotoxicity control for Shn3 inhibitor project, CellTiter-Glo, cherry-picked (AID 624134); type: functional, cell-based
[29] = tested on: Jurkat; test: antigen receptor-induced NF-kB inhibitors, dose response, Jurkat, luciferase reporter, luminescence, B- and T-cell (AID 489004); type: functional, cell-based; details: Homo sapiens;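 also: NF-kB luciferase reporter Jurkat cells stimulated with PMA plus ionomycin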
[30] = Shn3 3'UTR reporter inhibitors, dose response, cell-based, Clone20 osteoblasts, firefly luciferase, cherry-picked (AID 624132); type: functional;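 also: firefly luciferase luminescence from reporter carrying the Shn3 3'UTR in osteoblasts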
[31] = cytotoxicity in HEK-293T NF-kB-Luc cells, dose response, cytotoxicity control for B/T-cell NF-kB inhibitor project, cell-based, uHTS hits (AID 489019); type: functional;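 also: IC50 reflects cytotoxicity as loss of cell viability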
[32] = molecular target: T8, COUP transcription factor 2 (Homo sapiens, UniProt P24468); test: Luminescence-based cell-based high throughput dose response assay to identify inhibitors of COUP-TFII (NR2F2).; type: functional;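 also: HEK293 cells transiently cotransfected with COUP-TFII expression vector and reporter; luciferase reporter luminescence driven by COUP-TFII from the pX2-168 reporter plasmid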
T8 sequence (P24468 whole entry): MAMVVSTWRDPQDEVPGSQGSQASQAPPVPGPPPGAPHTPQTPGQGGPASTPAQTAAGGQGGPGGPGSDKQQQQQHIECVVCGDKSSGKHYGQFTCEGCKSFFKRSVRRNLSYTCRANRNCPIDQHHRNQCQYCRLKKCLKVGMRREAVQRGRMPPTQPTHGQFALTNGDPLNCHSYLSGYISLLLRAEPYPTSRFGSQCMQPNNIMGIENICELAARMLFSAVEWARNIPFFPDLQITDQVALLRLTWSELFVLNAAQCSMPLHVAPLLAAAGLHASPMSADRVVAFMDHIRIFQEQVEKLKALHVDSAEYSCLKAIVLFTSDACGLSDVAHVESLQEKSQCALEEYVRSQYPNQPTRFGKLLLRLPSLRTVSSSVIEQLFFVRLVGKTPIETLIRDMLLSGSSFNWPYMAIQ

[33] = tested on: INS1; test: beta cell apoptosis inhibitors, cytokine rescue, dose response, luminescence, retest (AID 449756); type: functional, cell-based; details: Rattus norvegicus;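 also: cell death triggered by IL-1 beta plus TNF-alpha plus IFN-gamma mixture; protective hits raise ATP signal compared with cytokine alone wells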
[34] = control 3'UTR Renilla luciferase suppression, dose response, counter-screen for Shn3 inhibitor project, cell-based, Clone20-Shn3RL, cherry-picked (AID 624133); type: functional
[35] = molecular target: Dual specificity tyrosine-phosphorylation-regulated kinase 1A (Rattus norvegicus, UniProt Q63470); type: biochemical, Homo sapiens
[36] = molecular target: T6, Beta-lactamase
[37] = molecular target: T5, Beta-lactamase

T5 sequence (Q5J463 whole entry): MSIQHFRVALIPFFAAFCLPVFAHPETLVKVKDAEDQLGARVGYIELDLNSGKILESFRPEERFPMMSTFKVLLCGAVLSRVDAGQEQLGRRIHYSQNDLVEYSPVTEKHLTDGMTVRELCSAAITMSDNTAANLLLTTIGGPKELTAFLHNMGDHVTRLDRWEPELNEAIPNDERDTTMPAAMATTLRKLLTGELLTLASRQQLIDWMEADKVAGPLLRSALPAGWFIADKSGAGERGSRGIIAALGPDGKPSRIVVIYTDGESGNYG
T6 sequence (Q79MP6 whole entry): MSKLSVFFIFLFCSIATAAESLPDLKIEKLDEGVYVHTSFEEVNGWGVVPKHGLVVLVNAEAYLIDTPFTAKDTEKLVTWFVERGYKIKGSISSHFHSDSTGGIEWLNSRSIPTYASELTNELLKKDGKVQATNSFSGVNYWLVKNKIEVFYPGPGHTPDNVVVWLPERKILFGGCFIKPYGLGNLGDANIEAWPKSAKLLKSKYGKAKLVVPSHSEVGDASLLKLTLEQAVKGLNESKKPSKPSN
Chain of Galanin receptor type 3 (O60755 whole entry): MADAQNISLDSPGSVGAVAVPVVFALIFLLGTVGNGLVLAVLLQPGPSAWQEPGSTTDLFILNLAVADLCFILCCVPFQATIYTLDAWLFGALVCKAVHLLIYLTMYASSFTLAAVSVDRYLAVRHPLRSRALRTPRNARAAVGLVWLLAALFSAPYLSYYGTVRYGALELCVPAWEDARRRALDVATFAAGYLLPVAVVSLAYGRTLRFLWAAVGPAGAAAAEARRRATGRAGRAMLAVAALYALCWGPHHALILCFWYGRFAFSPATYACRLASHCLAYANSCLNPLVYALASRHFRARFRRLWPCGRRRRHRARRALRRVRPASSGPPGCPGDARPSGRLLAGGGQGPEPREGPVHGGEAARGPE
Chain of Beta Lactamase (Q932Y6 whole entry): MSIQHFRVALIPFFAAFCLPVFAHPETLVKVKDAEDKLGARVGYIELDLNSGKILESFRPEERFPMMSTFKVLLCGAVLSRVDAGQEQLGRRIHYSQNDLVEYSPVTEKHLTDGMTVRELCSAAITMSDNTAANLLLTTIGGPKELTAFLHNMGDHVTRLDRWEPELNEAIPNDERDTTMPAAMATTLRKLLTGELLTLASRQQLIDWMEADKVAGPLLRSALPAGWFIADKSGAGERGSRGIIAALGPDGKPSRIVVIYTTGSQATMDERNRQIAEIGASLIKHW
Chain of Fructose-bisphosphate aldolase (P9WQA3 whole entry): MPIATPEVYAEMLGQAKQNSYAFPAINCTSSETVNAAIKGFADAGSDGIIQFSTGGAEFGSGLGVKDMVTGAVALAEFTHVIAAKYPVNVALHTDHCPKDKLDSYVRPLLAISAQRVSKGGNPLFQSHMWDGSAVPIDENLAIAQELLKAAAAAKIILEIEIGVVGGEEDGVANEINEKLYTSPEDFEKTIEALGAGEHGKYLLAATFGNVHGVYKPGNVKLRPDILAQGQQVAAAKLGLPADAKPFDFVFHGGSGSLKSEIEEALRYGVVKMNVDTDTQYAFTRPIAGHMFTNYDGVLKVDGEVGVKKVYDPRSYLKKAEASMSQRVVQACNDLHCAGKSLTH
T2 sequence (P65502 whole entry): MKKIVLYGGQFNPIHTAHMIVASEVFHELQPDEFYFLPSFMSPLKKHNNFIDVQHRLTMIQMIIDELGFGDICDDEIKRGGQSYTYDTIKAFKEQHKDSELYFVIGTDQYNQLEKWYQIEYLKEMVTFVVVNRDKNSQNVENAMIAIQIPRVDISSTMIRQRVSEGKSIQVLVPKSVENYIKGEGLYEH
Chain of Steroidogenic factor 1 (Q13285 whole entry): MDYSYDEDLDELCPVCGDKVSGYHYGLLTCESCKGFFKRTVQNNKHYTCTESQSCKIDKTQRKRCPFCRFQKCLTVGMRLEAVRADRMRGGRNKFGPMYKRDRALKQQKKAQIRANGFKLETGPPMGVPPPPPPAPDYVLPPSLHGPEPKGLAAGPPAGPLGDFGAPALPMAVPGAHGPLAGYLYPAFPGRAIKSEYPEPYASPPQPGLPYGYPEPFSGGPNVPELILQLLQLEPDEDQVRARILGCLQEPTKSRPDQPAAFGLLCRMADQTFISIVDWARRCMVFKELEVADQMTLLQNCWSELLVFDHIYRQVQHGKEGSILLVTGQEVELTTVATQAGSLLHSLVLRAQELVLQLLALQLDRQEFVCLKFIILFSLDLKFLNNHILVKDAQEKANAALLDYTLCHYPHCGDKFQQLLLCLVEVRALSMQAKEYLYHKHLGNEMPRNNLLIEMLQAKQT
Chain of Nuclear receptor subfamily 5 group A member 2 (O00482 whole entry): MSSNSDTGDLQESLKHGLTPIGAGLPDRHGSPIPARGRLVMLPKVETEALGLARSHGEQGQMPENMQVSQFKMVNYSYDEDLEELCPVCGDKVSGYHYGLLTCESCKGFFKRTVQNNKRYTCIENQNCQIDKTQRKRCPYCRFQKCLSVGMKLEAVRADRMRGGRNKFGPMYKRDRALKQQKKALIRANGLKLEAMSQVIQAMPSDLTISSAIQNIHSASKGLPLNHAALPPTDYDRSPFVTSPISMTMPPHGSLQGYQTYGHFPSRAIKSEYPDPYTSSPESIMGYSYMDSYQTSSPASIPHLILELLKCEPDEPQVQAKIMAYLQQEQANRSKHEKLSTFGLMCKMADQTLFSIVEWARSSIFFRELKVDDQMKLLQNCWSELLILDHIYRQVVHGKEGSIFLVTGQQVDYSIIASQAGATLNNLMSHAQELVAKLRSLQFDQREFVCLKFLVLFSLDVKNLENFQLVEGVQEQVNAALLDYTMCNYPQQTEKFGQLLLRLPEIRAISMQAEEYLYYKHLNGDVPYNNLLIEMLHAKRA
Chain of Paired box protein Pax-8 (Q06710 whole entry): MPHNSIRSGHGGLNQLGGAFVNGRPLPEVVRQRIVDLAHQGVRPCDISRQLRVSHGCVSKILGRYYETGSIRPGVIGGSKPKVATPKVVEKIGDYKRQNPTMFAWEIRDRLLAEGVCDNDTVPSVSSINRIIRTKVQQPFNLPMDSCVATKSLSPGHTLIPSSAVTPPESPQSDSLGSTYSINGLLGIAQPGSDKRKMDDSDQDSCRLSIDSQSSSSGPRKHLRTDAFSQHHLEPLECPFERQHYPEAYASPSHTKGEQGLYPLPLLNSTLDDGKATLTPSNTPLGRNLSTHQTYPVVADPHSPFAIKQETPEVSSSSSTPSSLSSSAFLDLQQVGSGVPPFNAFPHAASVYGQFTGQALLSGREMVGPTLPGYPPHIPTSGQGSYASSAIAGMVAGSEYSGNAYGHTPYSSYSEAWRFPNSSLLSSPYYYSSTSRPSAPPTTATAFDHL
Chain of FAD-linked sulfhydryl oxidase ALR (P55789 whole entry): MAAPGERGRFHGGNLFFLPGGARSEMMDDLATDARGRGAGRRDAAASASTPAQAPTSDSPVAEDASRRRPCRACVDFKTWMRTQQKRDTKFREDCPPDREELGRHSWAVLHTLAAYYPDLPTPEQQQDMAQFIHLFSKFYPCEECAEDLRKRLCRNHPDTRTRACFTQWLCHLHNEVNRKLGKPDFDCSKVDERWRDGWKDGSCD
Chain of Large T antigen (P03070 whole entry): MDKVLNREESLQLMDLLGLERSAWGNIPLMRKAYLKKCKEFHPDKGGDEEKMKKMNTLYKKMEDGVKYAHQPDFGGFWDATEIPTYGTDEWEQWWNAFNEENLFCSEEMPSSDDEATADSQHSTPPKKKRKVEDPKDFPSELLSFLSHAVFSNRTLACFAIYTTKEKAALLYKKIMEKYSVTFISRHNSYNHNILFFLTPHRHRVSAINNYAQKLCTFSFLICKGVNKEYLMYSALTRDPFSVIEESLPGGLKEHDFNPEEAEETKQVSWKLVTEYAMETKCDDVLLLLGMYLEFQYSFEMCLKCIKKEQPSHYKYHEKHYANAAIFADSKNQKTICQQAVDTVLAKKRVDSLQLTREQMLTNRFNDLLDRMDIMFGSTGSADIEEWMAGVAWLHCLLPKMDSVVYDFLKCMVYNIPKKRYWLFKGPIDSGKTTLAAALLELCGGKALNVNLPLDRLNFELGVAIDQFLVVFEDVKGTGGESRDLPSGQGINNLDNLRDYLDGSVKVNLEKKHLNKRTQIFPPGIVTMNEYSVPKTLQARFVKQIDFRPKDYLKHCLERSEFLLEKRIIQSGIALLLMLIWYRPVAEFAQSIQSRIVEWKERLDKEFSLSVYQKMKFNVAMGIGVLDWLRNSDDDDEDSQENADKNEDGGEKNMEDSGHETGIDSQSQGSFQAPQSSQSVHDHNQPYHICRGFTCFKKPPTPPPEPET

Cc1ccccc1OCC(=O)N/N=C/c1ccc([N+](=O)[O-])o1
EC50 [1]: > 30 µM (not active)
EC50 [2]: 0.151 µM (active)
AC50 [3]: 8.22 µM (active)
IC50 [4]: 6.24 µM (active)
IC50 [5]: 10.6 µM (inactive)
IC50 [6]: 29.9 µM (inactive)

CCC(=O)Nc1ccc(C(=O)COC(=O)c2nc3nccc(C)n3n2)cc1
IC50 [7]: 4.5 µM (active)
IC50 [8]: 1.92 µM (active)

C[C@H]1CN([C@@H](C)CO)C(=O)c2cccc(NC(=O)c3ccncc3)c2O[C@@H]1CN(C)Cc1ccc(F)c(F)c1
AC50 [9]: 0.0246 µM (active)

CC(=O)NCCNC(=O)C1Cc2c(-c3ccc4c(c3)OCO4)ccnc2O1 (centres undefined)
IC50 [10]: 1.73 µM (active)

CC(C)(C)c1cc(NCCCn2ccnc2)n2ncc(-c3ccc(Cl)cc3)c2n1
EC50 [1]: 5.5 µM (active)
EC50 [11]: > 150 µM (not active)
EC50 [2]: 1.49 µM (active)
AC50 [12]: 1.45 µM (active)
EC50 [13]: 6.12 µM (active)
IC50 [14]: > 20 µM (inactive)
EC50 [15]: 1.91 µM (active)

O=C(O)c1c(C(=O)O)c(-c2ccc(Br)cc2)n2c1CSC2
AC50 [16]: 5.35 µM (active)
IC50 [17]: > 59.6 µM (inactive)
IC50 [18]: > 59.6 µM (inactive)
IC50 [19]: 41.9 µM (inactive)

CCC(NCCC(c1ccccc1)c1ccccc1)=C1C(=O)NC(=O)NC1=O
EC50 [20]: > 29.9 µM (inactive)
IC50 [21]: 5.36 µM (active)

CCSc1ccc(-c2cc(NC=O)c3ncc(-c4cccc(C(=O)NCCN(C)C)c4)n3c2)cc1
IC50 [22]: 20 µM (inactive)
AC50 [23]: 1.14 µM (active)
AC50 [24]: 53.9 µM (active)
IC50 [25]: 11.8 µM (inactive)
AC50 [26]: 9.88 µM (active)

O=C(Nc1cccc(N2C(=O)C=CC2=O)c1)c1cccs1
EC50 [1]: 4.6 µM (active)
IC50 [22]: 14.1 µM (inactive)
EC50 [2]: 2.12 µM (active)
IC50 [25]: 2.27 µM (active)
IC50 [27]: 70.5 µM (active)

COc1ccc(CN(C)c2ccc(S(=O)(=O)N3CCN(C)CC3)cc2[N+](=O)[O-])cc1OC
AC50 [28]: 0.824 µM (active)
IC50 [29]: > 80 µM (inactive)
EC50 [20]: > 29.9 µM (inactive)
AC50 [30]: 0.691 µM (active)
IC50 [31]: > 80 µM (inactive)
IC50 [21]: 0.419 µM (active)
IC50 [32]: 2.05 µM (active)
AC50 [33]: 1.45 µM (active)
AC50 [34]: 23.8 µM (active)

CC1(C)C=Cc2cc3ccc(=O)oc3cc2O1 [XANTHYLETIN]
AC50 [35]: 8.65 µM (active)
IC50 [10]: > 1.11 µM (active)

CCCCC(Sc1nc(N)c(NC(=O)c2ccco2)c(=O)[nH]1)C(=O)O (centres undefined)
IC50 [36]: > 59.6 µM (inactive)
IC50 [37]: > 59.6 µM (inactive)

Sc1nnc(C2CC2)n1Cc1ccco1
IC50 [17]: > 59.6 µM (inactive)
IC50 [18]: > 59.6 µM (inactive)
IC50 [19]: > 59.6 µM (inactive)
